Assay results from paper PMC6463727, “Rational design of a heterotrimeric G protein α subunit with artificial inhibitor sensitivity” (The Journal of Biological Chemistry, 2019).
Changes are numbered by the printed parent chain. Numbered stars: 1 amine (or outer) side, 2 acyl side, 3 side chain; on linkers, the order of the positions; unused ones are H or OH. Bridge positions count the residues as written; N and C are the ends. Square brackets hold non-standard residues; d marks the D form. Peptide text beside a SMILES is read from it. X2 = CC(=O)NC(C(=O)OC(C(C)C)C(N[*:1])C(=O)[*:2])C(O)C(C)C; PhLac = O=C(O)[CH](O)Cc1ccccc1; NMeT = CN[CH](C(=O)O)[CH](C)O; NMeA = CN[CH](C)C(=O)O; NMeDha = C=C(NC)C(=O)O

Key:
Assay in all cases: cell-based
Settings in all cases: read-out: YM pIC50 (converted)
Gα16 (G16 WT) S185V = molecular target: T1, Gα16 (G16 WT) S185V (Homo sapiens, UniProt P30679, S185V); set-up: species or system HEK293 Gαq/Gα11-null (CRISPR/Cas9), transfected Gα
T1 construct: gene GNA15; human Gα16 cDNA in pcDNA3.1(+), expressed in CRISPR/Cas9 Gαq/Gα11-null HEK293 cells (transient); endogenous Gβγ
T1 sequence (P30679 1-374 S185V): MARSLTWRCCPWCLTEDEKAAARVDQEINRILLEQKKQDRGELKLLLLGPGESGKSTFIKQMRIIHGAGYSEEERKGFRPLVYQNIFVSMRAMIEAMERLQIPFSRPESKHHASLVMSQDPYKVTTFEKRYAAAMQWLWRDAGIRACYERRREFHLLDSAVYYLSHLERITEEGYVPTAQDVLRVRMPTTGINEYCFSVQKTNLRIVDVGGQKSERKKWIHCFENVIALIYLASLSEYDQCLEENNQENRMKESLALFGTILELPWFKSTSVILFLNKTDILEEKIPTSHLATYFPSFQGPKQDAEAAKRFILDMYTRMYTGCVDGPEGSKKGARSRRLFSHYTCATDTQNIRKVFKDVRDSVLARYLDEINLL
Method: Quantification of DMR signals was performed by calculation of the maximum responses. Data points from concentration-response or inhibition curves of individual functional experiments were fitted to the following four-parameter logistic function. (Eq. 1) Y=Bottom+(Top−Bottom)/1+10^(logEC50−x)slope Concentration-effect curves represented in figures were normalized by setting each experimental maximal effect as 100% response. All data are expressed as mean + or ± S.E. of at least three independent experiments performed in technical triplicates. […] Because none of our mutant proteins were […], we searched for additional residues that, when mutated, may incur activity loss for the two depsipeptides. We focused our attention on residues that (i) differed between Gαq and Gα16, (ii) were not addressed previously by mutagenesis, and (iii) were located on both linkers, including adjacent regions, to either directly interact with the depsipeptides (if side-chain or Gα atoms were within 5 Å to YM) or to be close enough to assist in stabilizing the inhibitor–protein interactions. Aspartate 71 (Asp-71) and valine 182 (Val-182) fulfilled these criteria (Fig. 3A; see also Fig. 2A): Asp-71 is part of an aspartic acid–arginine salt bridge that likely provides the interface between the depsipeptides and linker 1 by stabilizing and maintaining the inhibitor–linker 1 spacing (Fig. 3B). […]

Gα16 (G16 WT) C196P = molecular target: T2, Gα16 (G16 WT) C196P (Homo sapiens, UniProt P30679, C196P); set-up: species or system HEK293 Gαq/Gα11-null (CRISPR/Cas9)
T2 construct: gene GNA15; human Gα16 cDNA in pcDNA3.1(+), expressed in CRISPR/Cas9 Gαq/Gα11-null HEK293 cells (transient); endogenous Gβγ
T2 sequence (P30679 1-374 C196P): T1 sequence (P30679 1-374 S185V) with V185S, C196P
Method: (§1) Successful mutations were verified by DNA sequencing. Subconfluent cell cultures were transiently transfected with the respective expression plasmids using the polyethylenimine reagent (Polysciences, Warrington, PA) following the protocol provided by the manufacturer. All data were analyzed using GraphPad Prism 8.0.0 (GraphPad Inc., La Jolla, CA). Quantification of DMR signals was performed by calculation of the maximum responses. Data points from concentration-response or inhibition curves of individual functional experiments were fitted to the following four-parameter logistic function. (Eq. 1) Y=Bottom+(Top−Bottom)/1+10^(logEC50−x)slope Concentration-effect curves represented in figures were normalized by setting each experimental maximal effect as 100% response. All data are expressed as mean + or ± S.E. of at least three independent experiments performed in technical triplicates.

Gα16 (G16 WT) E74D = molecular target: T3, Gα16 (G16 WT) E74D (Homo sapiens, UniProt P30679, E74D); set-up: species or system HEK293 Gαq/Gα11-null (CRISPR/Cas9)
T3 construct: gene GNA15; human Gα16 cDNA in pcDNA3.1(+), expressed in CRISPR/Cas9 Gαq/Gα11-null HEK293 cells (transient); endogenous Gβγ
T3 sequence (P30679 1-374 E74D): T1 sequence (P30679 1-374 S185V) with E74D, V185S
Method: as §1

Gα16 (G16 WT) M187V = molecular target: T4, Gα16 (G16 WT) M187V (Homo sapiens, UniProt P30679, M187V); set-up: species or system HEK293 Gαq/Gα11-null (CRISPR/Cas9)
T4 construct: gene GNA15; human Gα16 cDNA in pcDNA3.1(+), expressed in CRISPR/Cas9 Gαq/Gα11-null HEK293 cells (transient); endogenous Gβγ
T4 sequence (P30679 1-374 M187V): T1 sequence (P30679 1-374 S185V) with V185S, M187V
Method: as §1

C=C1C(=O)NC(C)C(=O)N(C)C(C)C(=O)NC(C(OC(=O)C(NC(C)=O)C(O)C(C)C)C(C)C)C(=O)N(C)C(C(C)OC)C(=O)OC(C)C(NC(C)=O)C(=O)OC(Cc2ccccc2)C(=O)N1C (stereo not shown) [YM, YM-254890] (Ac-T[PhLac][NMeDha]A[NMeA][X2][NMeT](Me); ester 1-C; configuration not given here)
IC50 (Gα16 (G16 WT) S185V): ~316 µM
IC50 (Gα16 (G16 WT) C196P): > 1000 µM
IC50 (Gα16 (G16 WT) E74D): > 1000 µM
IC50 (Gα16 (G16 WT) M187V): > 1000 µM
